We go through 28 compounds from ChEMBL document CHEMBL1145819 (J Med Chem, 2003).

Experiment [1] addresses T1, 5-hydroxytryptamine receptor 5A (Mus musculus, UniProt P30966). Put plainly: Binding affinity towards murine 5-hydroxytryptamine 5A receptor.
The target of experiment [2] is T2, 5-hydroxytryptamine receptor 7 (Homo sapiens, UniProt P34969). Put plainly: Binding affinity towards human 5-hydroxytryptamine 7 receptor.
Experiment [3] has as its target T3, Alpha-2A adrenergic receptor (Homo sapiens, UniProt P08913).
T3 sequence (P08913 whole entry): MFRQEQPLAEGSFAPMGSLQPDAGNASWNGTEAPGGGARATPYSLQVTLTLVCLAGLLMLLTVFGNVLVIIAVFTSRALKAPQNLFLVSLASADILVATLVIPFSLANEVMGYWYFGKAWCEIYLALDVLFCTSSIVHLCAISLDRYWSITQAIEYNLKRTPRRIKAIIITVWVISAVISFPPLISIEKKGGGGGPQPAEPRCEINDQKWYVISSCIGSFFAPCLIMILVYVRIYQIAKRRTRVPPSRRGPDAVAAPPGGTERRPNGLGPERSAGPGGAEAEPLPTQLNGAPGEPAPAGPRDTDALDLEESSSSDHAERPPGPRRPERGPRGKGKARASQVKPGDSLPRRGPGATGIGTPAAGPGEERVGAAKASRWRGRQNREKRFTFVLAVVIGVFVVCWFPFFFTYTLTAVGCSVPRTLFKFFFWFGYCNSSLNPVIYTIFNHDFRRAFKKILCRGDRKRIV
The experiment is described as follows: Binding affinity towards Alpha-2 adrenergic receptor.

The target of experiment [4] is T4, Alpha-1A adrenergic receptor (Homo sapiens, UniProt P35348).
T4 sequence (P35348 whole entry): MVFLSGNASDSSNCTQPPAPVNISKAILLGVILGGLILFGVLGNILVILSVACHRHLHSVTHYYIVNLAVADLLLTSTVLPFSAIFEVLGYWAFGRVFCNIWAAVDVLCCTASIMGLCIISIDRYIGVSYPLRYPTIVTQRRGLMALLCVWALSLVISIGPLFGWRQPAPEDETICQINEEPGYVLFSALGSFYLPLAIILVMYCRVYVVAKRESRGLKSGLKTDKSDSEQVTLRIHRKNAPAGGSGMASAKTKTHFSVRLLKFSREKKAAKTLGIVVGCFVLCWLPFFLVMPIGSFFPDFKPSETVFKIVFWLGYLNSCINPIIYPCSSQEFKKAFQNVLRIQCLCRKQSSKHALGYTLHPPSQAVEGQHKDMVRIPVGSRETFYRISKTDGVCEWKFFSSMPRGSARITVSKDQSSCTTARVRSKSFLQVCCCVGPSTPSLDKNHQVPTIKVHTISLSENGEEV
Put plainly: Binding affinity towards alpha-1-adrenergic receptor.

For experiment [5], the target named is Serotonin 2 (5-HT2) receptor (Homo sapiens, UniProt P41595+P28223+P28335). The experiment is described as follows: Binding affinity towards 5-HT2 receptor. Type of experiment: protein assay.
The target of experiment [6] is T5, 5-hydroxytryptamine receptor 3A (Homo sapiens, UniProt P46098).
T5 sequence (P46098 whole entry): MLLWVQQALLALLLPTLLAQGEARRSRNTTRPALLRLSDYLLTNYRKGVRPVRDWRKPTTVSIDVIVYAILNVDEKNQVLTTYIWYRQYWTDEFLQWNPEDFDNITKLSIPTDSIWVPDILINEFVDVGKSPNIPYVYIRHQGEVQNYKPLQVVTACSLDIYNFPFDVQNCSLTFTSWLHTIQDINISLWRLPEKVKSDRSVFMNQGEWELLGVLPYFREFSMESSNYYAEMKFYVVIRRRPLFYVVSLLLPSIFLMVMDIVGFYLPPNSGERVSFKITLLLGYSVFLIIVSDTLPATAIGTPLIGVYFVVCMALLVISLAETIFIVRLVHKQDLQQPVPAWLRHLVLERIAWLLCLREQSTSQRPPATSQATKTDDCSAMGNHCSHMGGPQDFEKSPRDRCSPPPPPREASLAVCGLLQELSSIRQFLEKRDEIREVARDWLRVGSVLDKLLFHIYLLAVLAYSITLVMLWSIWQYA
Put plainly: Binding affinity towards 5-hydroxytryptamine 3 receptor.

Experiment [7] addresses T6, 5-hydroxytryptamine receptor 6 (Homo sapiens, UniProt P50406).
Experiment [8] in a line: Antagonistic activity of compound in 5-HT induced cAMP accumulation. The class given is functional.
The target of experiment [9] is T6, 5-hydroxytryptamine receptor 6. Put plainly: Binding affinity towards human 5-hydroxytryptamine 6 receptor.
For experiment [10] the target is unchanged. Put plainly: Antagonistic activity towards 5-hydroxytryptamine 6 receptor was evaluated in cAMP assay. Type of experiment: functional.
Experiment [11] shares this target. The experiment is described as follows: Binding affinity towards human 5-hydroxytryptamine 6 receptor was evaluated using [3H]-LSD as radioligand.
For experiment [12], the target named is 5-hydroxytryptamine receptor 7 (Rattus norvegicus, UniProt P32305). Put plainly: Binding affinity towards rat 5-hydroxytryptamine 7 receptor.
Experiment [13] addresses T6, 5-hydroxytryptamine receptor 6. The experiment is described as follows: Binding affinity towards human 5-hydroxytryptamine 6 receptor was evaluated using [125I]-2-iodo LSD as radioligand.
The target in experiment [14] is T1, 5-hydroxytryptamine receptor 5A. The experiment is described as follows: Binding affinity towards mouse 5-hydroxytryptamine 5A receptor was evaluated using [3H]LSD as radioligand.
In experiment [15] the target is 5-hydroxytryptamine receptor 2A (Homo sapiens, UniProt P28223). Put plainly: Binding affinity towards 5-hydroxytryptamine 2A receptor.
Experiment [16] deals with T2, 5-hydroxytryptamine receptor 7.
The target of experiment [17] is T1, 5-hydroxytryptamine receptor 5A. Put plainly: Binding affinity towards mouse 5-hydroxytryptamine 5A receptor.
The nature of experiment [18]: Antagonistic activity of compound in cAMP accumulation was evaluated. Type of experiment: functional.
Experiment [19] has as its target T1, 5-hydroxytryptamine receptor 5A. The experiment is described as follows: Binding affinity towards mouse 5-hydroxytryptamine 5A receptor was evaluated using [3H]- LSD as radioligand.
Experiment [20] concerns the target T7, 5-hydroxytryptamine receptor 5A (Homo sapiens, UniProt P47898). Put plainly: Binding affinity towards human 5-hydroxytryptamine 5A receptor.
In experiment [21] the target is T7, 5-hydroxytryptamine receptor 5A. Put plainly: Binding affinity towards human 5-hydroxytryptamine 5A receptor was evaluated using [3H]-5-CT as radioligand.
Experiment [22] concerns the target T2, 5-hydroxytryptamine receptor 7. The source holds these as a separate data set.
The target in experiment [23] is T6, 5-hydroxytryptamine receptor 6. The experiment is described as follows: Antagonistic activity towards 5-hydroxytryptamine 6 receptor. Type of experiment: functional. To be noted: read-out: pA2 (converted).
Experiment [24] addresses T7, 5-hydroxytryptamine receptor 5A. Put plainly: Binding affinity towards 5-hydroxytryptamine 5A receptor.
Experiment [25] can be described thus: Antagonistoc activity of compound for 5-CT-mediated adenylate cyclase activity. The class given is functional.

T6 sequence (P50406 whole entry): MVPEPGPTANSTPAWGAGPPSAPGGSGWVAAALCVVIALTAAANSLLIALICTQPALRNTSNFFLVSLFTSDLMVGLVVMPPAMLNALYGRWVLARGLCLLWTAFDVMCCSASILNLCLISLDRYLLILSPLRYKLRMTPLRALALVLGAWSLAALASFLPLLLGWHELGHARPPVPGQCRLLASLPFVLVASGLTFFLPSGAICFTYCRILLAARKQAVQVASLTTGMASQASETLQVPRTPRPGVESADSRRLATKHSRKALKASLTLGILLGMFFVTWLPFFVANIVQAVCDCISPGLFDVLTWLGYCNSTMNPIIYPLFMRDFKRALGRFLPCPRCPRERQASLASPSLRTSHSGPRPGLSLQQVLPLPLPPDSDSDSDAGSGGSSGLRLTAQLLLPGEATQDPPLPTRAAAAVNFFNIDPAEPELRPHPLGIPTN
T2 sequence (P34969 whole entry): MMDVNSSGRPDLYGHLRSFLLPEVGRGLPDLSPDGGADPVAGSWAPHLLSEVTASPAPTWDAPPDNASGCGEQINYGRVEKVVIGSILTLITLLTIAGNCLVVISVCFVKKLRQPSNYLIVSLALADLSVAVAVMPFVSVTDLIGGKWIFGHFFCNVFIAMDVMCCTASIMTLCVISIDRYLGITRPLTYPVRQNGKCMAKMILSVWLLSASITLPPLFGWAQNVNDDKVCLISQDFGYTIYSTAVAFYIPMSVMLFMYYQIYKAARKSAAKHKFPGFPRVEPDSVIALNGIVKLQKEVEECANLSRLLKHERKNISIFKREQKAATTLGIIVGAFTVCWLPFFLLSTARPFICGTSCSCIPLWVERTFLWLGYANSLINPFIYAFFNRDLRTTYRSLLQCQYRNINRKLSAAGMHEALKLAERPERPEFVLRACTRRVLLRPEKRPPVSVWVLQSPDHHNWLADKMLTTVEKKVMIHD
T1 sequence (P30966 whole entry): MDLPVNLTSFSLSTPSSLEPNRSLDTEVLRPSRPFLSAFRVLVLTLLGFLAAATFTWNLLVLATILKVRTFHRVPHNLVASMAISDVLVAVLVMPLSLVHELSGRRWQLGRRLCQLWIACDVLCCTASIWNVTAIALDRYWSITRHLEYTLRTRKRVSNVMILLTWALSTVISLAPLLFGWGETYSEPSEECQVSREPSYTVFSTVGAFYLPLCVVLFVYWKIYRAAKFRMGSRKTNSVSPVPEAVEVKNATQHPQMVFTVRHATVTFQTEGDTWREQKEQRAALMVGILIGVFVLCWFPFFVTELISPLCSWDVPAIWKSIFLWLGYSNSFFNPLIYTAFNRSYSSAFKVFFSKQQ
T7 sequence (P47898 whole entry): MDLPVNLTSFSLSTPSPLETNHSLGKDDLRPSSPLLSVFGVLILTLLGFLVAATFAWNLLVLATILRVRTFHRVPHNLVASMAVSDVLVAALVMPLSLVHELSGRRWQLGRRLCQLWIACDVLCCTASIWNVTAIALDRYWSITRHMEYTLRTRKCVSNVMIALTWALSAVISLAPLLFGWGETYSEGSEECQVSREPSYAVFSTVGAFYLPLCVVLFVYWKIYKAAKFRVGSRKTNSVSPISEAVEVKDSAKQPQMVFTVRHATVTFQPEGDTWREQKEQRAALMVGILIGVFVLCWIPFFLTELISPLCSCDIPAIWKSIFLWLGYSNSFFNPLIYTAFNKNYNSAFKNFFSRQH
Sequence of 5-hydroxytryptamine receptor 7 (Rattus norvegicus, UniProt P32305) (P32305 whole entry): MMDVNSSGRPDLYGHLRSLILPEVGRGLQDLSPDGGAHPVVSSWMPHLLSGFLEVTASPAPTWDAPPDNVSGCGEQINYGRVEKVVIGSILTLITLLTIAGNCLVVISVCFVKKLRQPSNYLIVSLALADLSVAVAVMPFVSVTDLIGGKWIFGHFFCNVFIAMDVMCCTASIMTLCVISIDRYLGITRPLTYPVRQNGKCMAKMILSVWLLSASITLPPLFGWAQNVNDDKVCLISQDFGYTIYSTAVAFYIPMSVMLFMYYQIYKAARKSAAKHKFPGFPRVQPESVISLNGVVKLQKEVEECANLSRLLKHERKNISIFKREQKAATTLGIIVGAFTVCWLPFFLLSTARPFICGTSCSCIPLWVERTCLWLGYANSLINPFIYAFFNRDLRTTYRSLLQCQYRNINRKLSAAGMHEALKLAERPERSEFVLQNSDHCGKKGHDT
Sequence of 5-hydroxytryptamine receptor 2A (P28223 whole entry): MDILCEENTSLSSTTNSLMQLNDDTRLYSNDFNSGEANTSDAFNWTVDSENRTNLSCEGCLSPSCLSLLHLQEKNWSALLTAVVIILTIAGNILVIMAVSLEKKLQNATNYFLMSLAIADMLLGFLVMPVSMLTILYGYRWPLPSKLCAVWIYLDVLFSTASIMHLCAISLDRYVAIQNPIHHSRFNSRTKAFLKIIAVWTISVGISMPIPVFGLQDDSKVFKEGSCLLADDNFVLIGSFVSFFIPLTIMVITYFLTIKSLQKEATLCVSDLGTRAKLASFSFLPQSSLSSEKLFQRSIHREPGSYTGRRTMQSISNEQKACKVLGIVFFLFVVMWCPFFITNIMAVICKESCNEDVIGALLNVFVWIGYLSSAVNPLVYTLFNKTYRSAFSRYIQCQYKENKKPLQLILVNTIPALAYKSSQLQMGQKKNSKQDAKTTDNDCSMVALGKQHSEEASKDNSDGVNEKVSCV

Compound `Cn1c2c(c3ccccc31)CNCC2` showed a Ki in experiment [1] of 5300 nM.

On to `Cc1c(N=C2NCCN2)cccc1-c1ccccc1`, for which the Ki is 16 nM in [2], 19 nM in [3] and 200 nM in [4].

On to `CNC(=O)Cn1c2c(c3ccccc31)CCN(CCCCC13CCCc4cccc(c41)NC3=O)C2` (configuration not stated), for which the results for the Ki in [5] and in [2] were over 1000 nM and 4 nM, respectively.

Consider `COc1ccc2[nH]c(C)c(CCN)c2c1`, for which the Ki in experiment [6] is over 10000 nM; in experiment [7] it was 80 nM.

Take `CNc1cc(NS(=O)(=O)c2ccc(N)cc2)cc(NC)n1`: in experiment [8], the pA2 is given as 7.1. Further, in [9], the Ki turned out to be 12 nM.

Take `Cc1cn(S(=O)(=O)c2ccc(N)cc2)c2ccccc12`: the IC50 in experiment [10] is 300 nM. Besides, in experiment [10] (read-out: pA2 (converted)), the Kb is 100 nM. This compound showed a Ki in experiment [7] of 12 nM.

In experiment [8], `CNc1cc(NS(=O)(=O)c2ccc(N)cc2)nc(NC)n1` gave a pA2 of 6.75.

As for `CCCN(CCC)C1CCc2cccc(O)c2C1` (configuration not stated) [8-OH-DPAT], the Ki in experiment [11] is over 10000 nM; in experiment [12], 150 nM.

Regarding `Clc1cccc(N2CCNCC2)c1` [CHLOROPHENYLPIPERAZINE], the Ki worked out at 8700 nM in experiment [1], 2300 nM in experiment [13] and 8700 nM in experiment [14].

Compound `CN(C)Cc1cn(S(=O)(=O)c2ccccc2)c2ccccc12` returned an IC50 in experiment [10] of 800 nM. In addition, in experiment [7], affinity was put at a Ki of 3.1 nM.

Regarding `CN1CCc2ccc3c4c2[C@H]1Cc1cccc(c1-4)[C@@H]3N`, the Ki in [15] came to 469 nM; in experiment [2], 18 nM; in experiment [3] it was 92.8 nM; in [4] it was 373 nM.

`CC1CCN(CC[C@H]2CCCN2S(=O)(=O)c2cccc(O)c2)CC1`: the pKb in [16] is 8.3.

Turning to `c1ccc2nc(N3CCNCC3)ccc2c1` [QUIPAZINE], the Ki in experiment [1] and in [14] was over 10000 nM in each case.

On to `c1ccc2c3c([nH]c2c1)CNCC3` [TRYPTOLINE], for which the values for the inhibition constant Ki in [17] and in experiment [7] were 2470 nM and over 5000 nM, respectively.

In experiment [5], `O=C1Nc2cccc3c2C1(CCCCN1CC=C(c2ccccc2)CC1)CCC3` (configuration not stated) came in with a Ki of 98 nM.

In turn, `Oc1ccccc1N1CCNCC1` had a Ki in experiment [1] of 215 nM.

Take `COc1ccc(NS(=O)(=O)c2ccc(Br)cc2)cc1N1CCN(C)CC1`: the pKb in experiment [18] is 7.8.

Compound `c1ccc2c(N3CCNCC3)cccc2c1` registered a Ki in experiment [19] of 40 nM.

As to `CNS(=O)(=O)c1ccc2[nH]cc(CCN(C)C)c2c1`, the Ki in [11] is 2600 nM; in experiment [20], 5000 nM; in experiment [21] it was 5000 nM; in [22] it was 950 nM.

For the compound `COc1ccc2c(c1)c(CCN(C)C)cn2S(=O)(=O)c1ccccc1`, the Ki in experiment [7] is 2.1 nM. Moreover, the Kb in experiment [23] was 1.32 nM.

With `Cc1[nH]c2ccc(O)cc2c1CCN`, the Ki in experiment [13] was 400 nM; in experiment [20], over 10000 nM; in experiment [14], over 10000 nM.

In the case of `O=C(CCCN1CCC2(CC1)C(=O)NCN2c1ccccc1)c1ccc(F)cc1` [SPIPERONE], the Ki is 1590 nM in [11], 63000 nM in [21] and 1590 nM in experiment [7].

`Cl.O=S(=O)(c1ccc2cc[nH]c2c1)N1CCC[C@@H]1CCN1CCC(Oc2ccc(Cl)cc2)CC1` came in with a Ki in experiment [24] of 168 nM. This compound had a pA2 in experiment [25] of 8.1.

Turning to `CN1C[C@H](CNC(=O)OCc2ccccc2)C[C@@H]2c3cccc4[nH]cc(c34)C[C@H]21`, the Ki in experiment [11] is 400 nM; in experiment [12] (read-out: Ki), 60 nM; in experiment [22] it was 6.4 nM.

`O=C1Nc2cccc3c2C1(CCCN1CCN(c2ccccc2)CC1)CCC3` (configuration not stated): the Ki in experiment [5] is listed as 16 nM.

Take `COc1ccc(NS(=O)(=O)c2sc3ccc(Cl)cc3c2C)cc1N1CCN2CCC[C@H]2C1`: the negative logarithm of the Kb (pKb) in experiment [18] came to 7.7.

With `NCCc1c[nH]c2ccc(C(N)=O)cc12`, the Ki in [11] turned out to be 720 nM; in experiment [20] it was 20 nM; in [21], 20 nM.

As for `COc1ccc(NS(=O)(=O)c2sc3ccc(Cl)cc3c2C)cc1N1CCN(C)CC1`, the pKb in [18] turned out to be 8.5.
